Laboratory results as given in ChEMBL document CHEMBL1201862, “PubChem BioAssay data set” (2004).
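Compound exposure: 48 hours, 5 concentrations, 96-well plates. GI50 = concentration required for 50% inhibition of growth.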 Activity calls are given as the source filed them. Rule as the data show it: active = GI50 up to about 1.1 µM and inactive = higher.

Experiments:
Assay in all cases: NCI tumour cell line growth inhibition, 48 h
ACHN = system: ACHN
BT-549 = system: BT-549
HCT-116 = system: HCT-116
Hs-578T = system: Hs-578T
MDA-MB-435 = system: MDA-MB-435
NCI-H23 = system: NCI-H23
NCI-H522 = system: NCI-H522
OVCAR-3 = system: OVCAR-3
OVCAR-5 = system: OVCAR-5
OVCAR-8 = system: OVCAR-8
PC-3 = system: PC-3
SF-295 = system: SF-295
SK-MEL-28 = system: SK-MEL-28
SN12C = system: SN12C
SNB-75 = system: SNB-75
UACC-257 = system: UACC-257
K562 = system: K562
RXF 393 = system: RXF 393
UO-31 = system: UO-31

| Compound | GI50 (ACHN) | GI50 (BT-549) | GI50 (HCT-116) | GI50 (Hs-578T) | GI50 (MDA-MB-435) | GI50 (NCI-H23) | GI50 (NCI-H522) | GI50 (OVCAR-3) | GI50 (OVCAR-5) | GI50 (OVCAR-8) | GI50 (PC-3) | GI50 (SF-295) | GI50 (SK-MEL-28) | GI50 (SN12C) | GI50 (SNB-75) | GI50 (UACC-257) | GI50 (K562) | GI50 (RXF 393) | GI50 (UO-31) |
| --- | --- | --- | --- | --- | --- | --- | --- | --- | --- | --- | --- | --- | --- | --- | --- | --- | --- | --- | --- |
| Oc1[nH]c(Nc2ccc(Cl)cc2)nc2ncnc1-2 | 63.7 µM (inactive) | > 100 µM (inactive) | 84.3 µM (inactive) | 23.3 µM (inactive) | > 100 µM (inactive) | > 100 µM (inactive) | 90.8 µM (inactive) | > 100 µM (inactive) | > 100 µM (inactive) | > 100 µM (inactive) | > 100 µM (inactive) | > 100 µM (inactive) | > 100 µM (inactive) | > 100 µM (inactive) | 43.4 µM (inactive) | > 100 µM (inactive) |  |  |  |
| Oc1ccc(Cc2cc(Cl)cc(Cl)c2O)cc1Cl | 17.4 µM (inactive) | 18.8 µM (inactive) | 18.7 µM (inactive) | 18 µM (inactive) | 8.83 µM (inactive) | 16.3 µM (inactive) | 16.7 µM (inactive) | 18.7 µM (inactive) | 18.4 µM (inactive) | 19 µM (inactive) | 17.7 µM (inactive) | 19 µM (inactive) | 17.3 µM (inactive) | 15.1 µM (inactive) | < 0.01 µM (active) | 15.9 µM (inactive) | 15.5 µM (inactive) | 13.4 µM (inactive) | 15.7 µM (inactive) |
| O=C(O)/C(=C\c1ccc(O)cc1)c1cccc2ccccc12 | > 100 µM (inactive) | > 100 µM (inactive) | > 100 µM (inactive) | > 100 µM (inactive) | > 100 µM (inactive) | > 100 µM (inactive) | > 100 µM (inactive) | 64.4 µM (inactive) | > 100 µM (inactive) | > 100 µM (inactive) | > 100 µM (inactive) | > 100 µM (inactive) | > 100 µM (inactive) | > 100 µM (inactive) | > 100 µM (inactive) | > 100 µM (inactive) | > 100 µM (inactive) | > 100 µM (inactive) | > 100 µM (inactive) |
| O=Cc1c(-c2ccccc2)nc2ccccc2c1O | > 100 µM (inactive) | > 100 µM (inactive) | 41.9 µM (inactive) | 30.1 µM (inactive) | 21.3 µM (inactive) | 75.7 µM (inactive) | 50.8 µM (inactive) | 49.8 µM (inactive) | > 100 µM (inactive) | 97.5 µM (inactive) | 36.5 µM (inactive) | 97.9 µM (inactive) | > 100 µM (inactive) | 73.8 µM (inactive) | 34.5 µM (inactive) | 72.8 µM (inactive) |  |  | 85.7 µM (inactive) |
